Laboratory results from ChEMBL document CHEMBL4476866, “Pyrrol-1-yl benzoic acid derivatives useful as myc inhibitors” (2015).
The source made the active and inactive calls. The rule behind the calls is not given here.

What was measured:
[1] = biological target: T1, Myc proto-oncogene protein (Homo sapiens, UniProt P01106); assay: Inhibition of human c-Myc assessed as reduction in c-Myc/Max/Ebox DNA complex formation using pre-formed complex of c-Myc and biotinylated DNA containing single Ebox-sequence followed by compound addition and further addition of his6-tagged c-Max and incubated for 2 hrs by AlphaScreen assay
NCI-H2171 [2] = assay: Cytotoxic activity against human NCI-H2171 cells assessed as reduction in cell viability incubated for 3 days by ATPlite assay; type: functional, cell-based
MM1.S = assay: Cytotoxic activity against human MM1S cells assessed as reduction in cell viability incubated for 3 days by ATPlite assay; type: functional, cell-based
[3] = Induction of Ebox DNA (unknown origin) intercalation assessed as reduction in c-Myc/Max/Ebox DNA complex formation at 1.7 to 15 uM by gel shift based orthogonal biochemical assay
[4] = Induction of Ebox DNA (unknown origin) intercalation assessed as reduction in Max/Max/Ebox DNA complex formation at 1.7 to 15 uM by gel shift based orthogonal biochemical assay
[5] = Induction of Ebox DNA (unknown origin) intercalation assessed as reduction in MITF/MITF/Ebox DNA complex formation at 1.7 to 15 uM by gel shift based orthogonal biochemical assay
[6] = biological target: T1, Myc proto-oncogene protein; assay: Inhibition of human his6-tagged c-Myc assessed as reduction in c-Myc/Max/Ebox DNA complex formation by gel shift based orthogonal biochemical assay
[7] = biological target: T1, Myc proto-oncogene protein; assay: Inhibition of c-Myc in human NCI-H2171 cells assessed as reduction in c-Myc occupancy at Npm1 binding site at 100 uM incubated for 4 hrs by chromatin immunoprecipitation assay; type: cell-based
[8] = biological target: T1, Myc proto-oncogene protein; assay: Inhibition of c-Myc in human NCI-H2171 cells assessed as reduction in c-Myc occupancy at Mat2a binding site at 100 uM incubated for 4 hrs by chromatin immunoprecipitation assay; type: cell-based
[9] = biological target: T1, Myc proto-oncogene protein; assay: Inhibition of c-Myc in human NCI-H2171 cells assessed as reduction in c-Myc occupancy at Hnrnpa2b1 binding site at 100 uM incubated for 4 hrs by chromatin immunoprecipitation assay; type: cell-based
[10] = biological target: T1, Myc proto-oncogene protein; assay: Inhibition of c-Myc in human NCI-H2171 cells assessed as reduction in c-Myc occupancy at Rp123a binding site at 100 uM incubated for 4 hrs by chromatin immunoprecipitation assay; type: cell-based
[11] = biological target: Protein max (Homo sapiens) (UniProt P61244); assay: Inhibition of Max in human NCI-H2171 cells assessed as reduction in Max occupancy at Npm1 binding site at 100 uM incubated for 4 hrs by chromatin immunoprecipitation assay; type: cell-based
[12] = biological target: Protein max (Homo sapiens) (UniProt P61244); assay: Inhibition of Max in human NCI-H2171 cells assessed as reduction in Max occupancy at Mat2a binding site at 100 uM incubated for 4 hrs by chromatin immunoprecipitation assay; type: cell-based
[13] = biological target: Protein max (Homo sapiens) (UniProt P61244); assay: Inhibition of Max in human NCI-H2171 cells assessed as reduction in Max occupancy at Hnrnpa2b1 binding site at 100 uM incubated for 4 hrs by chromatin immunoprecipitation assay; type: cell-based
[14] = biological target: Protein max (Homo sapiens) (UniProt P61244); assay: Inhibition of Max in human NCI-H2171 cells assessed as reduction in Max occupancy at Rp123a binding site at 100 uM incubated for 4 hrs by chromatin immunoprecipitation assay; type: cell-based
NCI-H2171 [15] = assay: Effect on c-Myc protein levels in human NCI-H2171 cells at 100 uM incubated for 4 hrs by […]; type: functional, cell-based
NCI-H2171 [16] = assay: Induction of cell differentiation in human NCI-H2171 cells assessed as effect on CD14 gene expression at 12.5 to 25 uM incubated for 4 days by qRT-PCR analysis; type: functional, cell-based
NCI-H2171 [17] = assay: Induction of cell differentiation in human NCI-H2171 cells assessed as effect on CD11c gene expression at 12.5 to 25 uM incubated for 4 days by qRT-PCR analysis; type: functional, cell-based
NCI-H2171 [18] = assay: Induction of cell differentiation in human NCI-H2171 cells assessed as effect on CCl4 gene expression at 12.5 to 25 uM incubated for 4 days by qRT-PCR analysis; type: functional, cell-based
NCI-H2171 [19] = assay: Induction of cell differentiation in human NCI-H2171 cells assessed as effect on CD11c expression at 12.5 to 25 uM incubated for 4 days by FACS analysis; type: functional, cell-based
[20] = Homo sapiens, NCI-H2171, 72 h, read-out: EC50
[21] = Homo sapiens, MM1.S, 72 h, read-out: EC50

T1 sequence (P01106 whole entry): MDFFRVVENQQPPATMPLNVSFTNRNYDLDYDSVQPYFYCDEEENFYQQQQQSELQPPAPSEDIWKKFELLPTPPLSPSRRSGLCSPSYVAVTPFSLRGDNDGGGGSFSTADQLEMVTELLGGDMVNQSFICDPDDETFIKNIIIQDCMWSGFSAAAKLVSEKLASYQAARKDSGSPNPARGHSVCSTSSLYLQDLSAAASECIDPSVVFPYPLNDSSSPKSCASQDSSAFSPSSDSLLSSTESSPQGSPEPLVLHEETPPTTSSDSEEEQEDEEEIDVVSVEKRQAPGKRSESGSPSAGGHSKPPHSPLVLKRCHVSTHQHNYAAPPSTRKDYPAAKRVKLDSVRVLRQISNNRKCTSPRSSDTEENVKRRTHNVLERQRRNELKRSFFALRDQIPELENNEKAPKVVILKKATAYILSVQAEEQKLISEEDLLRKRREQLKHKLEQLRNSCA
Chain of Protein max (Homo sapiens) (P61244 whole entry): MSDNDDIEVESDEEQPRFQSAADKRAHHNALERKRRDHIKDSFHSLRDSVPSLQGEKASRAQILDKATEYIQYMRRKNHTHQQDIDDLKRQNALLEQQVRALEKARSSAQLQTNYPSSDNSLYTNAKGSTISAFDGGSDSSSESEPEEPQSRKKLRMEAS

Row | SMILES | EC50 (NCI-H2171 [2]; nci-h2171) | EC50 (MM1.S; mm1.s) | other results
1 | Cc1ccc(C)n1-c1cc(C(=O)N/N=C/c2ccccc2N2CCOCC2)ccc1C(=O)O | Not Active | Not Active | IC50 ([1]; read-out: IC50): 7.05 µM
2 | CC(=O)OCOC(=O)c1ccccc1-n1ccnc1C |  |  | IC50 [1]: Not Active
3 | CC(=O)OCOC(=O)c1ccccc1N1CCN(C)CC1 |  |  | IC50 [1]: Not Active
4 | Cc1ccc(C)n1-c1cc(C(=O)N/N=C/c2c[nH]c3ccc(C#N)cc23)ccc1C(=O)O |  |  | EC50 (NCI-H2171 [2]; [20]): 3240 µM; EC50 (MM1.S; [21]): 5.75 µM
5 | Cc1ccc(C)n1-c1cc(C(=O)N/N=C/c2cccc(C(=O)O)c2)ccc1C(=O)O | Not Active | Not Active | 
6 | Cc1ccc(C)n1-c1c(C(=O)O)cccc1[N+](=O)[O-] |  |  | IC50 [1]: Not Active
7 | COC(=O)c1ccc(-n2c(C)ccc2C)cc1O | Not Active | Not Active | 
8 | Cc1ccc(C)n1-c1cnccc1C(=O)O | Not Active |  | 
9 | Cc1c2ccccc2c(C)n1-c1ccccc1C(=O)O | Not Active | Not Active | 
10 | COc1cccc2c1C(=O)c1c(O)c3c(c(O)c1C2=O)C[C@@](O)(C(=O)CO)C[C@@H]3O[C@H]1C[C@H](N)[C@H](O)[C@H](C)O1 |  |  | Activity [3]: Active; Activity [4]: Active; Activity [5]: Active
11 | Cc1ccc(C)n1-c1cc(C(=O)N/N=C/c2cc(F)c(F)c(F)c2)ccc1C(=O)O |  | Not Active | 
12 | Cc1ccc(C)n1-c1cc(C(=O)N/N=C/c2cccnc2)ccc1C(=O)O | Not Active |  | 
13 | Cc1ccc(C)n1-c1ccccc1C(N)=O |  |  | IC50 [1]: Not Active
14 | Cc1ccc(C)n1-c1ccc(C(=O)O)c([N+](=O)[O-])c1 | Not Active |  | 
15 | Cc1cc(C(=O)N/N=C/c2ccccc2)c(C)n1-c1ccccc1C(=O)O | Not Active | Not Active | 
16 | Cc1ccc(C)n1-c1cc(C(=O)N/N=C\c2ccc(C(=O)O)s2)ccc1C(=O)O |  | Not Active | 
17 | Cc1ccc(C)n1-c1cc(C(=O)N/N=C/c2ccc3nccnc3c2)ccc1C(=O)O | Not Active | Not Active | 
18 | Cc1ccc(C)n1-c1cc(C(=O)N/N=C/c2ccc3ccccc3n2)ccc1C(=O)O | Not Active |  | 
19 | Cc1ccc(C)n1-c1cc(C(=O)NCCc2cccc(C(=O)O)c2)ccc1C(=O)O |  |  | IC50 ([1]; read-out: IC50): 7.27 µM
20 | Cc1cc(C)c2c(=O)c(/C=N/NC(=O)c3ccc(C(=O)O)c(-n4c(C)ccc4C)c3)coc2c1 | Not Active |  | 
21 | Cc1ccc(C)n1-c1ccccc1C(=O)O |  |  | inhibition [6]: Dose-dependent effect; inhibition [7]: Active; inhibition [8]: Active; inhibition [9]: Active; inhibition [10]: Active; inhibition [11]: inactive; inhibition [12]: inactive; inhibition [13]: inactive; inhibition [14]: inactive; inhibition (NCI-H2171 [15]): inactive; Activity (NCI-H2171 [16]): Active; Activity (NCI-H2171 [17]): Active; Activity (NCI-H2171 [18]): Active; Activity (NCI-H2171 [19]): Active

Row | SMILES | EC50 (NCI-H2171 [2]; nci-h2171) | EC50 (MM1.S; mm1.s) | other results
22 | CC(=O)OCOC(=O)c1ccc(C(=O)N/N=C/c2ccc(O)c(O)c2O)cc1-n1c(C)ccc1C |  |  | EC50 (NCI-H2171 [2]; [20]): 2.23 µM; EC50 (MM1.S; [21]): 14.8 µM
23 | Cc1ccc(C)n1-c1ccc(C(=O)O)cc1O |  | Not Active | 
24 | Cc1ccc(C)n1-c1ncccc1C(=O)O |  | Not Active | 
25 | Cc1ccc(C)n1-c1cc(C(=O)N/N=C/c2c[nH]c3cc(F)ccc23)ccc1C(=O)O |  | Not Active | 
26 | COc1ccc(/C=N/NC(=O)c2ccc(C(=O)O)c(-n3c(C)ccc3C)c2)c(OC)c1 |  | Not Active | 
27 | Cc1ccc(C)n1-c1cc(C(=O)N/N=C\c2cc(F)c(C(=O)O)c(F)c2)ccc1C(=O)O | Not Active | Not Active | 
28 | CC(=O)Oc1cc(-n2c(C)ccc2C)ccc1C(=O)O |  |  | IC50 [1]: Not Active
29 | O=C(O)c1ccccc1-n1cccc1 |  |  | inhibition [7]: inactive; inhibition [8]: inactive; inhibition [9]: inactive; inhibition [10]: inactive
30 | Cc1ccc(C)n1-c1cc(C(=O)N/N=C/c2ccc3cccnc3n2)ccc1C(=O)O | Not Active |  | 
31 | Cc1ccc(C)n1-c1cccc(C(=O)c2ccccc2)c1C(=O)O |  | Not Active | 
32 | Cc1ccc(C)n1-c1cc(C(=O)N/N=C/c2ccc(N(C)C)cc2)ccc1C(=O)O | Not Active |  | 
33 | Cc1ccc(C)n1-c1cc(C(=O)N/N=C/c2cc(C(=O)O)ccc2F)ccc1C(=O)O | Not Active |  | 
34 | COC(=O)c1ccc(-n2cccc2)cc1O |  |  | IC50 [1]: Not Active
35 | CN(C)c1ccc(/N=N/c2ccccc2C(=O)O)cc1 |  | Not Active | 
36 | Cc1ccc(C)n1-c1cc(C(=O)N2CCOCC2)ccc1C(=O)O |  | Not Active | 
37 | Cc1ccc(C)n1-c1cc(C(=O)N/N=C/c2c[nH]c3ccc(F)cc23)ccc1C(=O)O | Not Active | Not Active | 
38 | Cc1ccc(C)n1-c1cc(C(=O)N/N=C/c2c[nH]cn2)ccc1C(=O)O | Not Active | Not Active | 
39 | CC(=O)OCOC(=O)c1ccc(-n2c(C)ccc2C)cc1O |  |  | EC50 (NCI-H2171 [2]; [20]): 2.8 to 66.1 µM; EC50 (MM1.S; [21]): 11 to 446 µM
40 | Cc1ccc(C)n1-c1cc(C(=O)N/N=C\c2ccc(S(=O)(=O)O)cc2)ccc1C(=O)O |  | Not Active | 
41 | Cc1ccc(C)n1-c1cc(C(=O)N/N=C/c2cccc3ncccc23)ccc1C(=O)O |  | Not Active | 
42 | Cc1ccc(C)n1-c1cc(C(=O)N/N=C/c2ccc(O)cc2)ccc1C(=O)O | Not Active | Not Active | 

Row | SMILES | EC50 (NCI-H2171 [2]; nci-h2171) | EC50 (MM1.S; mm1.s) | other results
43 | CC(=O)OCOC(=O)c1ccc(C(=O)N/N=C/c2c[nH]cn2)cc1-n1c(C)ccc1C |  | Not Active | 
44 | Cc1ccc(C)n1-c1cc(C(=O)O)ccc1C(=O)O | Not Active |  | IC50 ([1]; read-out: IC50): 0.788 µM
45 | COc1ncc(/C=N/NC(=O)c2ccc(C(=O)O)c(-n3c(C)ccc3C)c2)c(OC)n1 |  | Not Active | 
46 | Cc1ccc(C)n1-c1cc(C(=O)N/N=C\c2cccc(C(=O)O)c2)ccc1C(=O)O | Not Active | Not Active | 
47 | Cc1ccc(C)n1-c1cc(C(=O)N/N=C/c2ccc(C(=O)O)o2)ccc1C(=O)O | Not Active | Not Active | 
48 | Cc1ccc(C)n1-c1cc(C(=O)N/N=C/c2cccc(B(O)O)c2)ccc1C(=O)O | Not Active | Not Active | 
49 | Cc1ccc(C)n1-c1ccc(C(=O)O)c(O)c1 |  |  | EC50 (NCI-H2171 [2]; [20]): 189 to 517 µM; EC50 (MM1.S; [21]): 517 to 1440 µM
50 | O=C(O)c1ccccc1-n1c2ccccc2c2ccccc21 |  |  | IC50 [1]: Not Active
51 | Cc1ccc(C)n1-c1cc(C(=O)NNC(=O)c2cccc(C(=O)O)c2)ccc1C(=O)O | Not Active | Not Active | 
52 | Cc1ccc(C)n1-c1cc(C(=O)NN)ccc1C(=O)O |  |  | EC50 (NCI-H2171 [2]; nci-h2171, read-out: EC50): 0.00363 to 43.7 µM; EC50 (MM1.S; [21]): 625 to 1240 µM
53 | Cc1ccc(C)n1-c1cc(C(=O)N/N=C/c2ncc[nH]2)ccc1C(=O)O |  | Not Active | 
54 | CN1CCN(c2ccccc2C(=O)O)CC1 |  | Not Active | 
55 | Cc1ccc(C)n1-c1cc(C(=O)N/N=C/c2ccc(S(=O)(=O)O)o2)ccc1C(=O)O |  | Not Active | 
56 | Cc1c(C)c(C)n(-c2ccccc2C(=O)O)c1C |  |  | IC50 ([1]; read-out: IC50): 83.4 µM
57 | Cc1ccc(C)n1-c1cc(C(=O)N/N=C\c2ccc(O)c(F)c2)ccc1C(=O)O | Not Active | Not Active | 
58 | Cc1ccc(C)n1-c1ccc(Cl)cc1C(=O)O |  | Not Active | 
59 | Cc1ncc(CO)c(/C=N/NC(=O)c2ccc(C(=O)O)c(-n3c(C)ccc3C)c2)c1O |  | Not Active | 
60 | CC(=O)OCOC(=O)c1ccccc1-n1c(C)ccc1C |  |  | EC50 (NCI-H2171 [2]; [20]): 20.7 to 29.9 µM; EC50 (MM1.S; [21]): 52.3 to 71.4 µM
61 | Cc1ccc(C)n1-c1cc(C(=O)N/N=C/c2ccc(-c3cncnc3)cc2)ccc1C(=O)O | Not Active | Not Active | 
62 | Cc1cc(C(=O)O)ccc1-n1c(C)ccc1C |  | Not Active | 
